According to article PMC5618429, “Kempopeptin C, a Novel Marine-Derived Serine Protease Inhibitor Targeting Invasive Breast Cancer” (Marine Drugs, 2017):

Legend:
[1] = tested on: CDCP1 cleavage in MDA-MB-231 cells; assay: Cleavage of cellular CDCP1 in MDA-MB-231 supplemented with exogenous recombinant human matriptase; assay type: cell-based; conditions: MDA-MB-231 + 10 nM recombinant human matriptase, 24 h, different concentrations
Protocol: Figure 6 The effect of kempopeptins B and C (2 and 3) on CDCP1 cleavage in MDA-MB-231. (A) MDA-MB-231 cells were treated for 72 h with different concentrations of the test compounds. Following 72 h, the lysates were collected and analyzed by Western blot. (B) MDA-MB-231 cells were treated at different time points with 100 µM of kempopeptin C (3). Following 6 h, 12 h and 24 h, the lysates were collected and analyzed by Western blot. Dexamethasone (Dex) was used as a positive control. (C) MDA-MB-231 cells treated for 24 h with different concentrations of 3 in the presence of 10 nM recombinant human matriptase. Cell lysates were harvested and analyzed by Western blot. (D) Densitometric analysis of the full-length, LMW of CDCP1 and actin bands in (C).
In this experiment, we aimed to investigate the ability of 3 to inhibit cell-expressed CDCP1 rather than the purified recombinant protein in vitro. In contrast to the well-controlled in vitro assay, several factors might influence the extracellular matriptase activity in the cell-based assay; for example, the occurrence of additional secreted cellular factors, differences in pH, in addition to the unknown enzyme:substrate:inhibitor ratio. […] Additionally, matriptase is one of at least two other proteases known to process CDCP1, where plasmin is the main protease cleaving CDCP1 in MDA-MB-231 cells. […]

[2] = target: T1, recombinant human matriptase (Homo sapiens, UniProt Q9Y5Y6); assay: In vitro cleavage of CDCP1 by matriptase (SDS-PAGE, silver stain); assay type: biochemical; conditions: enzyme to substrate ratio 1:5, pH 9.0, 37 °C, 30 min and 2 h, 10‒0.01 µM inhibitor, qualitative
T1 construct: purchased R&D Systems 3946-SE-010
T1 sequence (Q9Y5Y6 615-855 limits assumed): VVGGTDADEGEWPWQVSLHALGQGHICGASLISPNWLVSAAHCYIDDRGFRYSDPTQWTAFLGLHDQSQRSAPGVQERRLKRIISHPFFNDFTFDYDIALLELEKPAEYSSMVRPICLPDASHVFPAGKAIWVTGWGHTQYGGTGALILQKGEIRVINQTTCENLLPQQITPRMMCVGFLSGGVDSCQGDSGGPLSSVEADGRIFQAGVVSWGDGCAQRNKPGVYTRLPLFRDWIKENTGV
Excerpt: Due to the significance of these proteases in cancer progression and metastasis, as well as their functional redundancy with respect to targeting overlapping substrates, we focused our studies on examining the effect of kempopeptin C (3) on the downstream cellular substrates of matriptase. Due to the limited amount of 3, our study aimed to provide a qualitative preliminary characterization of CDCP1 and Dsg-2 cleavage inhibition by kempopeptin C (3). […] CDCP1 is considered a potential prognostic marker with expression levels found to correlate with the recurrence and survival rate of cancer patients. […] The exact mechanism regulating the generation of the LMW fragment is poorly understood; however, there is evidence for the involvement of serine protease proteolytic activity. Several studies provided evidence for serine protease-mediated (trypsin, plasmin and matriptase) cleavage of CDCP1 [15, 38]. Therefore, we examined the ability of recombinant human matriptase to cleave CDCP1 in vitro and assessed the effect of kempopeptin C (3) on inhibiting/reducing this cleavage. Recombinant human matriptase was incubated with CDCP1 (final molar ratio 1:5) at different time points (30 min and 2 h) at 37 °C in the presence of varying concentrations of kempopeptin C (3) or solvent control (Figure 4A,B). […] LMW fragments were more readily detected at longer incubation times (2 h). […]

## CCCC(=O)NC(C(=O)NC1C(=O)NC(CCCCN)C(=O)NC2CCC(O)N(C2=O)C(C(C)CC)C(=O)N(C)C(Cc2ccc(OC)c(Cl)c2)C(=O)NC(C(C)C)C(=O)OC1C)C(C)C (stereo not shown) [Kempopeptin C, kempopeptin C]
[1]
  Reduction of cleavage of cellular CDCP1 in presence of exogenous matriptase: reduced the cleavage of CDCP1
[1]; listed as Kempopeptin C (3)
  Reduction of cleavage of cellular CDCP1 in presence of exogenous matriptase: slight dose-dependent reduction in the cleavage of the full-length form
[2]
  Inhibition of in vitro cleavage of CDCP1 by matriptase: inhibit the cleavage
[2]; listed as Kempopeptin C (3)
  Inhibition of in vitro cleavage of CDCP1 by matriptase: able to only minimize the cleavage at 10 µM
